Where no end group is shown, it is not given here.
Key:
[1] = system: all of the 6 strains tested; experiment: Geometric mean of MBCs and therapeutic index, all strains; assay type: cell-based; details: MHC/GM for all 6 strains; >128 counted as 256 μM
Description: (§1) In short, 50 μL peptide solutions were pipetted into microtiter plates at various concentrations ranging from 1 to 128 μM. Freshly grown bacteria were added to the each well in a density of 0.5–1 × 10^6 CFUmL^−1. Microtiter plated was incubated at 37 °C for 5 h. Fifty microliters of each incubation mixture was further serially diluted (up to 10^−3 of the initial bacterial concentration), transferred on agar plates and incubated overnight. On the following day, the number of colonies was evaluated and the initial CFU/well retrospectively calculated. The minimum bactericidal concentrations (μM) were determined as the lowest concentration of the peptides that prevented more than 99.9% bacteria growth.
(§2) The therapeutic index (TI) is calculated by the ration of the minimum hemolytic concentration (MHC) to the geometric mean of the MBC (GM) to evaluate cell selectivity of peptides.

[2] = system: Methicillin-resistant S. aureus ATCC 43300; details: S. aureus 43300 (methicillin-resistant); lowest concentration preventing more than 99.9% growth; 37 °C, 5 h; representative of three trials
Description: as §1

[3] = system: 3 gram-negative strains tested; experiment: Geometric mean of MBCs and therapeutic index, gram-negative strains; assay type: cell-based; details: MHC/GM for 3 gram-negative strains; >128 counted as 256 μM
Description: as §1, §2

[4] = system: E. coli UB1005; assay type: cell-based, Escherichia coli; details: UB1005, 5 h
Description: as §1, with “Minimal bactericidal concentrations (MBCs) were measured using the method which has been adopted from National Committee for Clinical Laboratory Standards (NCCLS), with modifications. In” for “In”

[5] = system: E. coli ATCC 25922; assay type: cell-based, Escherichia coli; details: ATCC 25922, 5 h
Description: as §1, with “Minimal bactericidal concentrations (MBCs) were measured using the method which has been adopted from National Committee for Clinical Laboratory Standards (NCCLS), with modifications. In” for “In”

[6] = system: S. typhimurium ATCC14028; assay type: cell-based, Salmonella typhimurium; details: ATCC14028, 5 h
Description: as §1, with “Minimal bactericidal concentrations (MBCs) were measured using the method which has been adopted from National Committee for Clinical Laboratory Standards (NCCLS), with modifications. In” for “In”

[7] = system: S. aureus ATCC29213; assay type: cell-based, Staphylococcus aureus; details: ATCC 29213, 5 h
Description: as §1, with “Minimal bactericidal concentrations (MBCs) were measured using the method which has been adopted from National Committee for Clinical Laboratory Standards (NCCLS), with modifications. In” for “In”

[8] = system: human red blood cells (hRBCs); experiment: Hemolytic activity; details: concentration causing 5% hemolysis of human red blood cells; about 1% hRBC in PBS, 37 °C, 1 h, OD 576 nm
Description: The hemolytic activity of each peptide was evaluated using a modified method, as described previously[21][22]. […] Then, the collected hRBCs were washed three times with PBS (pH 7.2), centrifuged at 1000 × g for 5 min, and resuspended in PBS (final concentration, approximately 1%). Next, 50 μL of the hRBC suspension was placed into a 96-well cell culture plate with 50 μL of test peptide solution in PBS at different concentrations, and the mixture was incubated at 37 °C for 1 h. After incubation, the plate was centrifuged at 1000 × g for 5 min, the supernatant was transferred to a new 96-well cell culture plate, and the release of hemoglobin was measured by monitoring optical density (OD) at 576 nm. Untreated hRBCs suspension was used as a negative control, and the hRBCs treated with 0.1% Triton X-100 were employed as positive controls. Each test was reproduced at least 3 times using 6 replicates. Percent hemolysis was calculated using the following equation:

[9] = system: S. epidermidis ATCC12228; assay type: cell-based, Staphylococcus epidermidis; details: ATCC12228, 5 h
Description: In short, 50 μL peptide solutions were pipetted into microtiter plates at various concentrations ranging from 1 to 128 μM. Freshly grown bacteria were added to the each well in a density of 0.5–1 × 10^6 CFUmL^−1. Microtiter plated was incubated at 37 °C for 5 h. Fifty microliters of each incubation mixture was further serially diluted (up to 10^−3 of the initial bacterial concentration), transferred on agar plates and incubated overnight. On the following day, the number of colonies was evaluated and the initial CFU/well retrospectively calculated. The minimum bactericidal concentrations (μM) were determined as the lowest concentration of the peptides that prevented more than 99.9% bacteria growth. Each test was reproduced at least 3 times using 6 replicates.

[10] = system: 3 gram-positive strains tested; details: MHC/GM for 3 gram-positive strains; >128 counted as 256 μM
Description: as §1, §2

[11] = system: S. aureus ATCC 29213; assay type: cell-based, Staphylococcus aureus; details: ATCC 29213, 5 h
Description: as §1, with “Minimal bactericidal concentrations (MBCs)” for “In short, 50 μL peptide solutions”, “measured using the method which has been adopted” for “pipetted into microtiter plates at various concentrations ranging”, “National Committee for Clinical Laboratory Standards (NCCLS), with modifications. […]” for “1 to 128 μM.”, “growth. […] The salt sensitivity of the peptides was measured using a modified method, as described previously. […] The subsequent steps were consistent with the MBCs determination method.” for “growth.”

[12] = system: E. coli ATCC 25922; assay type: cell-based, Escherichia coli; details: ATCC 25922, 5 h; remark: listed apart in the source
Description: as §1, with “Minimal bactericidal concentrations (MBCs)” for “In short, 50 μL peptide solutions”, “measured using the method which has been adopted” for “pipetted into microtiter plates at various concentrations ranging”, “National Committee for Clinical Laboratory Standards (NCCLS), with modifications. […]” for “1 to 128 μM.”, “growth. […] The salt sensitivity of the peptides was measured using a modified method, as described previously. […] The subsequent steps were consistent with the MBCs determination method.” for “growth.”

[13] = system: E. coli ATCC 25922; assay type: cell-based, Escherichia coli; details: ATCC 25922, 24 h
Description: The checkerboard titration method is commonly used to evaluate the synergy of different antibacterial combinations. First, 2-fold serial dilutions of the antibiotics and antimicrobial peptides were prepared. Subsequently, 50 μL each of different concentrations of antibiotics and of antimicrobial peptides was mixed and added into 100 μL of bacterial solution (containing approximately 0.5–1 × 10^6 CFU mL^−1) in each well of a 96-well plate. The plates were then incubated at 37 °C for 24 h. The subsequent steps were consistent with the MBCs determination method. The fractional inhibitory concentration (FIC) index (FICI) was calculated as follows: An FICI < 0.5 is considered to indicate synergy; 0.5 < FICI < 1.0 is considered additive; 1.0 < FICI < 4.0 is considered indifferent; and an FICI > 4.0 is considered antagonism.

Substance	TI (therapeutic index), all strains [1]	Minimum bactericidal concentration [2]	TI (therapeutic index), gram-negative [3]	Minimum bactericidal concentration [4]	Minimum bactericidal concentration [5]	Minimum bactericidal concentration [6]	Minimum bactericidal concentration [7]	MHC (minimum hemolytic concentration) [8]	Minimum bactericidal concentration [9]	TI (therapeutic index), gram-positive [10]	MBC with CaCl2 [11]	MBC with FeCl3 [11]	MBC with CaCl2 [12]	MBC with FeCl3 [12]	MBC with KCl [12]	MBC with MgCl2 [12]	MBC with NH4Cl [12]	MBC with NaCl [12]	MBC with ZnCl2 [12]	MBC, control [12]	also measured
AKLWALKAKLWALKAKLWALK-NH2 [AA3s1]	1.41	16 µM	3.17	4 µM	2 µM	16 µM	16 µM	16 µM	64 µM	0.63	–	–	–	–	–	–	–	–	–	–	–
AKLWLKAAKLWLKA-NH2 [AA2]	12.70	16 µM	25.40	8 µM	1 µM	16 µM	16 µM	128 µM	32 µM	6.35	64 µM	16 µM	4 µM	1 µM	1 µM	2 µM	1 µM	2 µM	1 µM	1 µM	MBC with KCl [11]: 16 µM; MBC with MgCl2 [11]: 32 µM; MBC with NH4Cl [11]: 8 µM; MBC with NaCl [11]: 128 µM; MBC with ZnCl2 [11]: 8 µM; MBC, control [11]: 16 µM; FIC index in combination with Ceftazidime [13]: 1; FIC index in combination with Chloramphenicol [13]: 1; FIC index in combination with Ciprofloxacin [13]: 0.75; FIC index in combination with Streptomycin [13]: 0.5
AKLWLKAAKLWLKAAKLWLKA-NH2 [AA3]	2.52	4 µM	3.17	2 µM	2 µM	4 µM	4 µM	8 µM	4 µM	2	4 µM	4 µM	2 µM	2 µM	1 µM	2 µM	2 µM	2 µM	1 µM	2 µM	MBC with KCl [11]: 4 µM; MBC with MgCl2 [11]: 4 µM; MBC with NH4Cl [11]: 4 µM; MBC with NaCl [11]: 4 µM; MBC with ZnCl2 [11]: 4 µM; MBC, control [11]: 4 µM; FIC index in combination with Ceftazidime [13]: 1; FIC index in combination with Chloramphenicol [13]: 1; FIC index in combination with Ciprofloxacin [13]: 2
AKLWLKAAKLWLKAAKLWLKAAKLWLKA-NH2 [AA4]	0.03	32 µM	0.03	32 µM	8 µM	128 µM	32 µM	1 µM	32 µM	0.03	128 µM	32 µM	8 µM	8 µM	4 µM	8 µM	8 µM	64 µM	4 µM	8 µM	MBC with KCl [11]: 32 µM; MBC with MgCl2 [11]: 32 µM; MBC with NH4Cl [11]: 32 µM; MBC with NaCl [11]: 32 µM; MBC with ZnCl2 [11]: 32 µM; MBC, control [11]: 32 µM
GKLWLKGGKLWLKGGKLWLKGGKLWLKG-NH2 [GG4]	0.40	128 µM	1.59	8 µM	4 µM	32 µM	128 µM	16 µM	>128 µM	0.10	–	–	4 µM	4 µM	4 µM	4 µM	4 µM	4 µM	4 µM	4 µM	–
GLWKGKLGLWKGKLGLWKGKL-NH2 [GG3s2]	10.08	64 µM	32	4 µM	4 µM	32 µM	128 µM	>128 µM	64 µM	3.17	–	–	–	–	–	–	–	–	–	–	–
